{"source": "patent US20220110985A1", "about": "“NUTRITIONAL COMPOSITION COMPRISING 2'FUCOSYLLACTOSE AND 3'GALACTOSYLLACTOSE” (N.V. Nutricia, priority 2019, published 2022)", "key": {"Caco-2 cell monolayer": {"test_system": "Caco-2 cell monolayer", "test": "DON-induced impairment of Caco-2 cell monolayer integrity (TEER, lucifer yellow flux)", "assay_type": "cell-based, human", "conditions": "for effect on DON-induced loss of epithelial barrier integrity (TEER, LY flux), in words: 24 h pretreatment (GLs 0.75 wt. %; 2′-FL 1 mg/ml), then DON 4.2 μM 24 h", "protocol": "Beta1,3′-galactosyl-lactose (beta3′-GL), beta1,4′-galactosyllactose (beta4′-GL) and beta1,6′-galactosyl-lactose (beta6′-GL) were obtained from Carbosynth (Berkshire, UK). Alpha1,3′-galactosyl-lactose (alpha3′-GL) was obtained from Elicityl (Crolles, France). Purified deoxydivalenol (DON) (D0156; Sigma Aldrich, St Luis, Mo., USA) was dissolved in pure ethanol and stored at −20° C. Human epithelial colorectal adenocarcinoma (Caco-2) cells were obtained from American […] (Code HTB-37) (Manasse, Va., USA, passage 90-102).\nCaco-2 cells were used according to established methods. In brief: cells were cultured in Dulbecco's modified Eagle medium (DMEM) and seeded at a density of 0.3×10^5 cells into 0.3 cm^2 high pore density (0.4 μm) inserts with a polyethylene terephthalate membrane (BD Biosciences, Franklin Lakes, N.J., USA) placed in a 24-well plate. The Caco-2 cells were maintained in a humidified atmosphere of 95 air and 5% CO2 at 37° C.\nCaco-2 cell monolayers were thus grown in a transwell system, which is a model for intestinal barrier function. The monolayers were pretreated for 24 h with different GLs, including beta3′-GL, alpha3′-GL, beta4′-GL and beta6′-GL in a concentration of 0.75 wt. % of the GL, before being exposed to the fungal toxin deoxynivalenol (DON), which is a trigger and model compound to impair intestinal barrier. DON was diluted to a final concentration of 4.2 μM in complete cell medium and added to the apical side as well as to the basolateral side of the transwell inserts. […] Incubation with DON was 24 h.\nMeasurements of the transepithelial electrical resistance (TEER) and lucifer yellow (LY) permeability were conducted to investigate barrier integrity. For TEER measurements a Millicel-ERS voltohmmeter connected to a pair of chopsticks electrodes was used to measure the TEER values. Results are expressed as a percentage of the initial value. For paracellular tracer flux assay the membrane impermeable lucifer yellow (LY) (Sigma, St Luis, Mo., USA) was added in a concentration of 16 μg/ml to the apical compartment in the transwell plate for 4 h, and the paracellular flux was determined by measuring the fluorescence intensity in the basolateral compartment with a spectrophotofluorimeter (FLUOstar Optima, BMG Labtech, Offenburg, Germany) set at excitation and emission wavelengths of 410 and 520 nm, respectively. Release of interleukin-8 (IL-8 or CXCL8), which is a typical marker for inflammation, was quantified in the medium of the apical side and the basolateral side of the Caco-2 transwell inserts in response to the treatments. CXCL8 concentrations were measured by using the human IL-8 ELISA assay (BD Biosciences, Pharmingem, San Diego, Calif., USA) according to manufacturer's instructions. For more details on materials and methods see Akbari et al, 2016, Eur J Nutr. 56(5):1919-1930."}, "[1]": {"test_system": "T84 human intestinal epithelial cells", "test": "T84 monolayer barrier integrity (TEER) with IL-4", "assay_type": "cell-based", "conditions": "butyric acid 4 mM, TEER increase relative to t=0", "protocol": "T84 human intestinal epithelial cells are commonly used to study intestinal barrier integrity in vitro. T84 cells (ATCC, USA) were cultured on 12 mm transwell inserts (0.4 μm, Corning Costrar, USA) in DMEM-F12 glutamax with penicillin-streptomycin (100 IU/ml), supplemented with 5% FBS-Hl. T84 cells were used 14 days after reaching confluence. Monolayers of T84 cultured on transwell filters were pre-incubated for 48 h with or without butyrate. These samples were subsequently incubated for an additional 48 h in the presence of IL-4 (25 ng/ml). IL-4 was added to the basolateral compartment; medium and additives were changed every 24 h.\nEpithelial barrier integrity was assessed by measuring transepithelial resistance (TEER; Ω×cm^2) with the epithelial volt-ohm meter (EVOM; World Precision Instruments, Germany).\nResults are shown in Table 5 where relative TEER values are presented. The 48 h and 96 h column is the TEER increase relative to t=0 value. IL-4 treatment disrupted the intestinal barrier function; however in the presence of butyrate this disruption was ameliorated."}, "[2]": {"test_system": "human peripheral blood mononuclear cells (PBMCs)", "test": "PBMC cell activity (WST-1)", "assay_type": "cell-based", "conditions": "after 24 h; non-stimulated and CD3/CD28 stimulated conditions", "protocol": "Isolation of PBMC from healthy donors: Human peripheral blood mononuclear cells (PBMC) from healthy donors were isolated from buffy coats (Sanquin, Amsterdam, the Netherlands). PBMC were obtained by centrifugation using Leucosep tubes (Greiner Bio-One). PBMC were collected and washed in PBS (Gibco, Thermo Fisher Technologies)+2% heat-inactivated FCS (Invitrogen), followed by hypotonic lysis of erythrocytes with sterile lysis buffer (0.15 M NH4Cl, 0.01 M KHCO3 and 0.1 mM EDTA, pH of 7.4 at 4° C., all from Merck, Darmstadt, Germany). After lysis, the PBMC were resuspended in freezing medium (70% RPMI 1640 medium (Gibco, Thermo Fisher Technologies) supplemented with 10% heat-inactivated FCS and 100 U/ml penicillin-streptomycin, 20% heat-inactivated FCS and 10% DMSO (Sigma)) and cryopreserved.\nPBMC activation model: PBMC (0.2·10^6 cell/well) were cultured in 96-well flat bottom plates (Corning). For 24 hours the cells were pre-incubated with 2′-FL (Jennewein), 3′-GL (0-0.3% w/v; Carbosynth) or sodium butyrate (0.2 mM; Sigma Aldrich) and combinations thereof. Subsequently, the cells were CD3/CD28-activated (Pelicluster CD3 and Pelicluster CD28, Sanquin) for an additional 24 hours. After incubation, IFNγ was measured by ELISA in the supernatants (see below). To determine cell activity after stimulation, PBMC were incubated with cell proliferation reagent WST-1 (10 μl; Roche) and/or 10% Triton (5 μl; negative control). After 3 hours, absorbance was measured at OD450 nm and OD650 nm and cell activity was calculated according to manufacturer's instructions."}, "human PBMC, unstimulated": {"test_system": "human PBMC, unstimulated", "test": "Cytokine production of unstimulated PBMC (IL10, CCL20)", "assay_type": "cell-based", "source_text": "Isolation of PBMC from healthy donors: Human peripheral blood mononuclear cells (PBMC) from healthy donors were isolated from buffy coats (Sanquin, Amsterdam, the Netherlands). PBMC were obtained by centrifugation using Leucosep tubes (Greiner Bio-One). […] After lysis, the PBMC were resuspended in freezing medium (70% RPMI 1640 medium (Gibco, Thermo Fisher Technologies) supplemented with 10% heat-inactivated FCS and 100 U/ml penicillin-streptomycin, 20% heat-inactivated FCS and 10% DMSO (Sigma)) and cryopreserved. PBMC activation model: PBMC (0.2·10^6 cell/well) were cultured in 96-well flat bottom plates (Corning). For 24 hours the cells were pre-incubated with 2'-FL (Jennewein), 3'-GL (0-0.3% w/v; […] Sigma Aldrich) and combinations thereof. Subsequently, the cells were CD3/CD28-activated (Pelicluster CD3 and Pelicluster CD28, Sanquin) for an additional 24 hours. After incubation, IFNγ was measured by ELISA in the supernatants (see below). […] Roche) and/or 10% Triton (5 μl; negative control). […] Cytokine production of PBMC: PBMC were incubated with indicated reagents. After incubation, the supernatants were collected and IL2, IL6, IL10, IL13, IL21, TNFα, IFNγ, MIF, CCL1, CCL13, CCL17, CCL20, CCL22 and CXCL8-11 levels were measured by conducting a validated multiplex immunoassay based on Luminex technology (xMAP, Luminex Austin Tex. USA). Acquisition was conducted with the Biorad […] (Biorad laboratories, Hercules USA) in combination with xPONENT software version 4.2 (Luminex). Data was analyzed by 5-parametric curve fitting using Bio-Plex Manager software, version 6.1.1 (Biorad). After PBMC stimulation, cell culture supernatants were collected, after which cytokine responses were measured in order to test immune responsiveness of the cells. The levels of cytokines measured in stimulated conditions were corrected for the (low) levels of the cytokines measured in non-stimulated conditions. In addition, since each donor is reacting in its own efficiency onto the T cell stimulus, we calculated the individual index of cytokine response by dividing the intervention induced response by the basal stimulated response."}, "[3]": {"conditions": "Caco-2 monolayer, DON 4.2 μM, 2′-FL 1 mg/ml"}}, "note": "Marks after values point to notes of the source that are not given here."}
{"compound": "CC1=C[C@H]2O[C@@H]3[C@H](O)C[C@](C)([C@@]2(CO)[C@H](O)C1=O)[C@]31CO1", "note": "[DON, deoxynivalenol]", "values": [{"measurement": "Lucifer yellow flux", "setting": "Caco-2 cell monolayer; [3]", "result": "530.8 (3.975)*** ng/ml (cm^2xh)"}, {"measurement": "TEER (% of initial value) Mean (s.e.)", "setting": "Caco-2 cell monolayer; [3]", "result": "34.33 (1.088)*** % of initial value"}]}
{"compound": "OC[C@H]1O[C@@H](OC[C@H]2O[C@@H](O[C@H]3[C@H](O)[C@@H](O)C(O)O[C@@H]3CO)[C@H](O)[C@@H](O)[C@H]2O)[C@H](O)[C@@H](O)[C@H]1O", "note": "(stereo partly drawn) [beta6′-GL, Gal (beta 1-6)-Gal (beta 1-4)-Glc]", "values": [{"measurement": "effect on DON-induced loss of epithelial barrier integrity (TEER, LY flux), in words", "setting": "Caco-2 cell monolayer", "result": "did not show a significant effect"}]}
{"compound": "OC[C@H]1O[C@@H](O[C@@H]2[C@H](O)[C@@H](O)[C@H](O[C@H]3[C@H](O)[C@@H](O)C(O)O[C@@H]3CO)O[C@@H]2CO)[C@H](O)[C@@H](O)[C@H]1O", "note": "(stereo partly drawn) [beta4′-GL, Gal (beta 1-4)-Gal (beta 1-4)-Glc]", "values": [{"measurement": "effect on DON-induced loss of epithelial barrier integrity (TEER, LY flux), in words", "setting": "Caco-2 cell monolayer", "result": "did not show a significant effect"}]}
{"compound": "CCCC(=O)O", "note": "[butyrate, butyric acid]", "values": [{"measurement": "% TEER at 48 h", "setting": "[1]; 48 h pre-incubation", "result": "79 (25) %"}, {"measurement": "% TEER at 96 h (IL-4)", "setting": "[1]; additional 48 h with IL-4 25 ng/ml", "result": "26 (16) %"}, {"measurement": "Immune cell activity as measured by WST, in words", "setting": "[2]", "result": "did not influence immune cell metabolic activity"}, {"measurement": "IL10 level as compared to blanc control, in words", "setting": "human PBMC, unstimulated; 0.2% 2′-FL, 0.2 mM butyrate", "result": "did not have an effect"}, {"measurement": "CCL20 level as compared to blanc control, in words", "setting": "human PBMC, unstimulated; unstimulated PBMC", "result": "did not have a statistically significant effect"}, {"measurement": "Relative IL10 level, mean (se)", "setting": "human PBMC, unstimulated; unstimulated, 0.2% w/v 2′-FL, 0.2 mM butyrate, blanc = 1, observed", "result": "1.911 (0.203)"}, {"measurement": "Relative CCL 20 mean (s.e.)", "setting": "human PBMC, unstimulated; unstimulated, 0.2% w/v 2′-FL, 0.1 w/v % 3′-GL, 0.2 mM butyrate, blanc = 1, observed", "result": "1.053 (0.127)"}]}
{"compound": "OC[C@H]1O[C@H](O[C@H]2[C@@H](O)[C@@H](CO)O[C@@H](O[C@H]3[C@H](O)[C@@H](O)C(O)O[C@@H]3CO)[C@@H]2O)[C@H](O)[C@@H](O)[C@H]1O", "note": "(stereo partly drawn) [alpha3′-GL, Gal (alpha 1-3)-Gal (beta 1-4)-Glc]", "values": [{"measurement": "effect on DON-induced loss of epithelial barrier integrity (TEER, LY flux), in words", "setting": "Caco-2 cell monolayer", "result": "did not prevent the DON-induced disrupted intestinal barrier"}]}
